Measurements published in patent EP4162932A1, “ANTIVIRAL HOP CONSTITUENTS” (HHV Hallertauer Hopfenveredelungsgesellschaft mbH, priority 2021, dated 2023).

Legend:
in vitro = conditions: human, Caco-2
icSARS-CoV-2-mNG = test: microbe, parasite or virus in culture; type: cell-based, SARS-CoV-2; conditions: Severe acute respiratory syndrome coronavirus 2, Caco-2, 48 h; read-out: half maximal inhibitory concentration (IC50) on virus replication
SARS-CoV-2 PLpro = SARS-CoV-2 PLpro (Severe acute respiratory syndrome coronavirus 2, UniProt P0DTD1); test: PLpro kinetic inhibition assay, cleavage of AMC peptide mimicking the C-terminus of human ISG15; type: biochemical

COc1cc(O)c(CC=C(C)C)c(O)c1C(=O)/C=C/c1ccc(O)cc1 [XN, xanthohumol] gave a CC50 (in vitro) of 12.3 µM and an IC50 (icSARS-CoV-2-mNG) of 3.28 µM.
CC(C)=CCc1c(O)cc2c(c1O)C(=O)C[C@@H](c1ccc(O)cc1)O2 [6-PN, 6-prenylnaringenin] gave a CC50 (in vitro) of 22.6 µM, an IC50 (SARS-CoV-2 PLpro) of 131 ± 10 µM and an IC50 (icSARS-CoV-2-mNG) of 7.26 µM.
For CC(C)=CCc1c(O)cc(O)c2c1O[C@H](c1ccc(O)cc1)CC2=O [8-PN, 8-prenylnaringenin], the CC50 (in vitro) was 54.9 µM, the IC50 (SARS-CoV-2 PLpro) was 119 ± 13 µM and the IC50 (icSARS-CoV-2-mNG) was 23 µM.
For COc1cc(O)c(CC=C(C)C)c2c1C(=O)CC(c1ccc(O)cc1)O2 (centres unmarked) [IX, isoxanthohumol], the CC50 (in vitro) was 19.5 µM, the IC50 (SARS-CoV-2 PLpro) was 59 ± 15 µM and the IC50 (icSARS-CoV-2-mNG) was 20.1 µM.
